As usually defined, the MIC is the lowest concentration found to suppress growth.

The results in this text go back to patent publication US10919916B2, “Boron-containing small molecules” (Bill & Melinda Gates Foundation, priority 2016, dated 2021).

≈ marks a conversion by molar mass, not a printed value.

What all share (type): cell-based
Assay [1] concerns Streptococcus pneumoniae (ATCC 49619). Description: Antibacterial MIC assay (microbroth dilution, CLSI). To be noted: ATCC49619, microbroth dilution, 3% lysed horse blood, 35° C. for 16-20 hours, read-out: MIC Streptococcus pneumoniae (ATCC 49619). Put shortly: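 CLSI broth microdilution: 2-fold compound dilutions in cation-adjusted Mueller-Hinton broth supplemented with 3% lysed horse blood for S. pneumoniae, inoculum 5×10^5 CFU/mL from a 0.5 McFarland direct colony suspension, with growth control.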

For assay [2], the system named is Staphylococcus aureus, MRSA (ATCC 33591). The description is as above. The conditions noted are these: microbroth dilution, cation-adjusted Mueller-Hinton broth, 35° C. for 16-20 hours, read-out: MIC Staphylococcus aureus, MRSA (ATCC 33591). In a few lines: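 Microbroth dilution per CLSI M07-A10/M100-S25 in cation-adjusted Mueller-Hinton broth, with 3% lysed horse blood added for S. pneumoniae. Inoculum from a 0.5 McFarland direct colony suspension, diluted to 5×10^5 CFU/mL in the well. Compounds were 2-fold serially diluted; MIC read against a growth control.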
Background: Dilution methods test growth across graded concentrations, often in twofold steps.

Assay [3] relates to Wolbachia pipientis in C6/36 cell line. Description: Anti-Wolbachia high-content assay. To be noted: C6/36 (wAlbB) cells, 7 days at 26° C., 50% reduction of Wolbachia, read-out: EC50 Wolbachia pipientis in C6/36 cell line. In a few lines: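 Wolbachia-infected C6/36 cells stained 15 minutes, then medium replaced and five fields per well imaged confocally at 60× with fluorescein filters. Each intact cell scored on cytoplasmic texture complexity.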

For the compound `C=C[C@]1(C)C[C@@H](OC(=O)COc2ccc3c(c2)B(O)N(C)N=C3)[C@]2(C)[C@H](C)CC[C@]3(C[C@H](F)C(=O)[C@H]32)[C@@H](C)[C@@H]1O` [Compound 84, (2S,3aR,4R,5R,7S,8S,9R,9aS,12R)-2-fluoro-8-hydroxy-4,7,9,12-tetramethyl-3-oxo-7-vinyldecahydro-4,9a-propanocyclopenta[8]annulen-5-yl 2-((1-hydroxy-2-methyl-1,2-dihydrobenzo[d][1,2,3]diazaborinin-7-yl)oxy)acetate], the minimum inhibitory concentration (MIC) in assay [1] and in assay [2] was 0.5 to 2 µg/mL (≈ 0.902 to 3.61 µM) in each case. The EC50 in assay [3] amounted to 78 nM.

For `C=C[C@]1(C)C[C@@H](OC(=O)COc2ccc3c(c2)B(O)N(C(C)=O)N=C3)[C@]2(C)[C@H](C)CC[C@]3(C[C@H](O)C(=O)[C@H]32)[C@@H](C)[C@@H]1O` [Compound 86, (2S,3aR,4R,5R,7S,8S,9R,9aS,12R)-2,8-dihydroxy-4,7,9,12-tetramethyl-3-oxo-7-vinyldecahydro-4,9a-propanocyclopenta[8]annulen-5-yl 2-((2-acetyl-1-hydroxy-1,2-dihydrobenzo[d][1,2,3]diazaborinin-7-yl)oxy)acetate], the MIC in assay [1] was 0.5 to 2 µg/mL (≈ 0.861 to 3.45 µM); in assay [2] it was under 0.25 µg/mL. Besides, in assay [3], the EC50 came to 1 nM.

For the compound `C=C[C@]1(C)C[C@@H](OC(=O)COc2ccc3c(c2)B(O)N(C(C)=O)N=C3)[C@]2(C)[C@H](C)CC[C@]3(C[C@H](F)C(=O)[C@H]32)[C@@H](C)[C@@H]1O` [Compound 88, (2S,3aR,4R,5R,7S,8S,9R,9aS,12R)-2-fluoro-8-hydroxy-4,7,9,12-tetramethyl-3-oxo-7-vinyldecahydro-4,9a-propanocyclopenta[8]annulen-5-yl 2-((2-acetyl-1-hydroxy-1,2-dihydrobenzo[d][1,2,3]diazaborinin-7-yl)oxy)acetate], the MIC in assay [1] was 0.5 to 2 µg/mL (≈ 0.858 to 3.43 µM); in assay [2], under 0.25 µg/mL. Moreover, the EC50 in assay [3] turned out to be 4 nM.

As to `C=C[C@]1(C)C[C@@H](OC(=O)COc2ccc3c(c2)B(O)N(C(=O)OC)N=C3)[C@]2(C)[C@H](C)CC[C@]3(C[C@H](O)C(=O)[C@H]32)[C@@H](C)[C@@H]1O` [Compound 90, Methyl 7-(2-(((2S,3aR,4R,5R,7S,8S,9R,9aS,12R)-2,8-dihydroxy-4,7,9,12-tetramethyl-3-oxo-7-vinyldecahydro-4,9a-propanocyclopenta[8]annulen-5-yl)oxy)-2-oxoethoxy)-1-hydroxybenzo[d][1,2,3]diazaborinine-2(1H)-carboxylate], the MIC is 0.5 to 2 µg/mL (≈ 0.838 to 3.35 µM) in assay [1] and under 0.25 µg/mL in assay [2]. Also, the EC50 in assay [3] was 3 nM.

As for `C=C[C@]1(C)C[C@@H](OC(=O)COc2ccc3c(c2)B(O)N(C(=O)OC)N=C3)[C@]2(C)[C@H](C)CC[C@]3(C[C@H](F)C(=O)[C@H]32)[C@@H](C)[C@@H]1O` [Compound 92, Methyl 7-(2-(((2S,3aR,4R,5R,7S,8S,9R,9aS,12R)-2-fluoro-8-hydroxy-4,7,9,12-tetramethyl-3-oxo-7-vinyldecahydro-4,9a-propanocyclopenta[8]annulen-5-yl)oxy)-2-oxoethoxy)-1-hydroxybenzo[d][1,2,3]diazaborinine-2(1H)-carboxylate], the figures for the MIC in assay [1] and in assay [2] were 0.5 to 2 µg/mL (≈ 0.835 to 3.34 µM) and under 0.25 µg/mL, respectively. In addition, the EC50 in assay [3] is 3 nM.

In the case of `C=C[C@]1(C)C[C@@H](OC(=O)COc2ccc3c(c2C)B(O)N(C(=O)OC)N=C3)[C@]2(C)[C@H](C)CC[C@]3(C[C@H](F)C(=O)[C@H]32)[C@@H](C)[C@@H]1O` [Compound 95, Methyl 7-(2-(((2S,3aR,4R,5R,7S,8S,9R,9aS,12R)-2-fluoro-8-hydroxy-4,7,9,12-tetramethyl-3-oxo-7-vinyldecahydro-4,9a-propanocyclopenta[8]annulen-5-yl)oxy)-2-oxoethoxy)-1-hydroxy-8-methylbenzo[d][1,2,3]diazaborinine-2(1H)-carboxylate], the MIC in assay [1] and in assay [2] was under 0.25 µg/mL in each case. Also, the EC50 in assay [3] was found to be 46 nM.

Take `C=C[C@]1(C)C[C@@H](OC(=O)COc2ccc3c(c2)B(O)ON=C3)[C@]2(C)[C@H](C)CC[C@]3(C[C@H](O)C(=O)[C@H]32)[C@@H](C)[C@@H]1O` [Compound 98, (2S,3aR,4R,5R,7S,8S,9R,9aS,12R)-2,8-dihydroxy-4,7,9,12-tetramethyl-3-oxo-7-vinyldecahydro-4,9a-propanocyclopenta[8]annulen-5-yl 2-((1-hydroxy-1H-benzo[d][1,2,6]oxazaborinin-7-yl)oxy)acetate]: the minimum inhibitory concentration (MIC) in assay [1] and in assay [2] was 0.5 to 2 µg/mL (≈ 0.927 to 3.71 µM) throughout. Further, the EC50 in assay [3] is 63 nM.

With `C=C[C@]1(C)C[C@@H](OC(=O)COc2ccc3c(c2)B(O)ON=C3)[C@]2(C)[C@H](C)CC[C@]3(C[C@H](F)C(=O)[C@H]32)[C@@H](C)[C@@H]1O` [Compound 99, (2S,3aR,4R,5R,7S,8S,9R,9aS,12R)-2-fluoro-8-hydroxy-4,7,9,12-tetramethyl-3-oxo-7-vinyldecahydro-4,9a-propanocyclopenta[8]annulen-5-yl 2-((1-hydroxy-1H-benzo[d][1,2,6]oxazaborinin-7-yl)oxy)acetate], the MIC in assay [1] and in assay [2] was 0.5 to 2 µg/mL (≈ 0.923 to 3.69 µM) throughout. For the same compound, the EC50 in assay [3] is 13 nM.

As for `C=C[C@]1(C)C[C@@H](OC(=O)COc2cnc3c(c2)B(O)OC3)[C@]2(C)[C@H](C)CC[C@]3(CCC(=O)[C@H]32)[C@@H](C)[C@@H]1O` [Compound 101, (3aR,4R,5R,7S,8S,9R,9aS,12R)-8-hydroxy-4,7,9,12-tetramethyl-3-oxo-7-vinyldecahydro-4,9a-propanocyclopenta[8]annulen-5-yl 2-((1-hydroxy-1,3-dihydro-[1,2]oxaborolo[4,3-b]pyridin-6-yl)oxy)acetate], the MIC in assay [1] was 4 to 32 µg/mL (≈ 7.82 to 62.6 µM); in assay [2] it was 0.5 to 2 µg/mL (≈ 0.978 to 3.91 µM). Also, the EC50 in assay [3] was over 1000 nM.

With `C=C[C@]1(C)C[C@@H](OC(=O)CNc2cnc3c(c2)B(O)OC3)[C@]2(C)[C@H](C)CC[C@]3(CCC(=O)[C@H]32)[C@@H](C)[C@@H]1O` [Compound 102, (3aR,4R,5R,7S,8S,9R,9aS,12R)-8-hydroxy-4,7,9,12-tetramethyl-3-oxo-7-vinyldecahydro-4,9a-propanocyclopenta[8]annulen-5-yl (1-hydroxy-1,3-dihydro-[1,2]oxaborolo[4,3-b]pyridin-6-yl)glycinate], the MIC in assay [1] and in assay [2] was over 64 µg/mL in each case. The EC50 in assay [3] is over 1000 nM.

For `C=C[C@]1(C)C[C@@H](OC(=O)COc2ccc(C3=CCOB3O)cc2)[C@]2(C)[C@H](C)CC[C@]3(CCC(=O)[C@H]32)[C@@H](C)[C@@H]1O` [Compound 103, (3aR,4R,5R,7S,8S,9R,9aS,12R)-8-hydroxy-4,7,9,12-tetramethyl-3-oxo-7-vinyldecahydro-4,9a-propanocyclopenta[8]annulen-5-yl 2-(4-(2-hydroxy-2,5-dihydro-1,2-oxaborol-3-yl)phenoxy)acetate], the MIC in assay [1] and in assay [2] was under 0.25 µg/mL in each case. Moreover, in assay [3], the EC50 amounted to 419 nM.
